The source of these data is patent US20110040088A1, “FUSED HETEROCYCLIC COMPOUNDS” (priority 2003, published 2011).

Like-named read-outs stand apart in the source and are kept apart here.

One experiment deals with 5-HT2A receptor (UniProt P28223). As to the kind of experiment: 5-HT2A receptor radioligand binding ([3H]ketanserin).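 Note: competitive displacement binding on membranes, either from rat cerebral cortex or from NIH3T3 cells stably expressing human 5-HT2A.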 To be noted: read-out: Ki 5-HT2A, table does not say whether rat cortex or human recombinant (NIH3T3) receptor.
In experiment [1] the target is human recombinant 5-HT2B receptor (Homo sapiens, UniProt P41595). Put plainly: 5-HT2B receptor radioligand binding ([3H]mesulergine, CHO membranes).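 Note: competitive displacement binding on membranes of CHO cells stably expressing the receptor.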
Experiment [2] has as its target T1, human recombinant 5-HT2C receptor (Homo sapiens, UniProt P28335).
T1 sequence (P28335 33-458): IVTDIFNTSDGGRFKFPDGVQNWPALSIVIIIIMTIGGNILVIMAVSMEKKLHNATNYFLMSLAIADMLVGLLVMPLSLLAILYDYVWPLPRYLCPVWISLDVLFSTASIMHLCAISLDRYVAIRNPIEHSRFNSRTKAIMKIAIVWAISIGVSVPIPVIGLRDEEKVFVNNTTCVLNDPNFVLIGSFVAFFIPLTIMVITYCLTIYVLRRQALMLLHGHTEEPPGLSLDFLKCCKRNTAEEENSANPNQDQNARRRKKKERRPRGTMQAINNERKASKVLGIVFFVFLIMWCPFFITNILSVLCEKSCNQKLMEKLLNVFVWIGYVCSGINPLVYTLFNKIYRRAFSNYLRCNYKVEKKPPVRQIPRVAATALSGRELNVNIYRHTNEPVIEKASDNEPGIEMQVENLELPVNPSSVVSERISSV
As to the kind of experiment: 5-HT2C receptor radioligand binding ([3H]mesulergine, CHO membranes).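 Note: competitive displacement of the tritiated ligand, using membranes from CHO cells stably transfected with the human receptor.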
Method: Affinity for 5HT2 Receptor Binding Sites
Receptor binding was performed using the human recombinant 5-HT2A (GB: X57830), 5-HT2B (GB: Z36748) and 5-HT2c (GB: M81778) receptors. The affinity of the compounds for the 3 different human 5-HT2 receptor subtypes was evaluated by competitive radioligand binding assays using [^3H]ketanserin (h5-HT2A) or [^3H]mesulergine (h5-HT2B and h5-HT2c). The assays were performed on membranes prepared from NIH3T3 stably transfected with h5-HT2A or CHO stably transfected with h5-HT2B and h5-HT2C.

In another experiment the target is T2, rat 5-HT7a receptor (Rattus norvegicus, UniProt P32305).
T2 construct: expressed in transfected cells
Put plainly: 5-HT7 receptor radioligand binding ([3H]5-CT, membranes of transfected HEK-293 cells). To be noted: rat 5-HT7a in HEK-293 membranes, 1 nM [3H]5-CT.

[3] abbreviates: read-out: Ki 5-HT2B, h5-HT2B in CHO membranes, [3H]mesulergine.
[4] abbreviates: read-out: Ki 5-HT2C, h5-HT2C in CHO membranes, [3H]mesulergine.

The Ki is a measure of affinity in units of concentration, obtained from inhibition or displacement.

Chain of human recombinant 5-HT2B receptor (P41595 whole entry): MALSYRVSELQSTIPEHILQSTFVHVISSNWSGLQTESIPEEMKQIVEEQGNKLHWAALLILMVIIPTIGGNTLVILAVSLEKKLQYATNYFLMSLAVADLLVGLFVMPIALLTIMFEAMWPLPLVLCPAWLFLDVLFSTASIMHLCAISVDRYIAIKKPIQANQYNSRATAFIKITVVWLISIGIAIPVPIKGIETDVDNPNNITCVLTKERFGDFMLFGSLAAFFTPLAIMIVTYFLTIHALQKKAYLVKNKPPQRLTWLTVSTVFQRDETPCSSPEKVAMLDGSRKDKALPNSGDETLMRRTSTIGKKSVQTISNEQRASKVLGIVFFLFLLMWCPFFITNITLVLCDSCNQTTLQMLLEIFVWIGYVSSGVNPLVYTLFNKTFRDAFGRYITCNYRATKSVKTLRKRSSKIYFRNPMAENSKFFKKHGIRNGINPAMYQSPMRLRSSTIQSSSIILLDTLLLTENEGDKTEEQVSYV
T2 sequence (P32305 whole entry): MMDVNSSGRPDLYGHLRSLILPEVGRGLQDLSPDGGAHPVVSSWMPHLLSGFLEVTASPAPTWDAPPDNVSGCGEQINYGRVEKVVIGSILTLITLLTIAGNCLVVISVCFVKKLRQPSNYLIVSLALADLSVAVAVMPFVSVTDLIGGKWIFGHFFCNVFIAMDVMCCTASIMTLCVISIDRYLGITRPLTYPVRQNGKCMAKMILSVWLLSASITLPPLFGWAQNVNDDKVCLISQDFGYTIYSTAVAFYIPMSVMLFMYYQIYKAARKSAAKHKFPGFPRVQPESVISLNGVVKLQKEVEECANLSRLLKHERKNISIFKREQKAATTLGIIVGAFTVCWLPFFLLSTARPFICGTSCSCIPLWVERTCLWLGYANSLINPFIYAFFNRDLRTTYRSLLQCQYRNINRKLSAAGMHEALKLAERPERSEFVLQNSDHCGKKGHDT
Method for 5-HT2A receptor: The affinity of the compounds for the rat 5-HT2A receptor was evaluated by competitive radioligand binding assay using [^3H]ketanserine as the radioligand. The assay was performed on membranes from rat cortex as previously described (Schotte, A. et al., Psychopharmacology (1996) 124: 57-73). Briefly, brain tissue (rat cortex) was homogenized in 20 volumes per wet weight tissue of Tris-HCl buffer (50 mM, pH 7.4). The total membrane fraction was collected by centrifugation and washed by subsequent centrifugation runs (25 min at 25,000 g at 4° C.). Membranes were re-suspended in Tris-HCl buffer (50 mM, pH 7.4) containing 1 nM [^3H]ketanserin. Non-specific binding was estimated in the presence of 10 μM risperidone.

Regarding `CC(C)n1nc2c(c1-c1ccc(F)cc1)CCNCC2` [Example 190, 3-(4-Fluoro-phenyl)-2-isopropyl-2,4,5,6,7,8-hexahydro-1,2,6-triaza-azulene], the Ki at 5-HT2A receptor is 10 nM; in experiment [1], 22 nM; in experiment [2] it was 51 nM; on rat 5-HT7a receptor, 16 nM.

With `c1ccc(-c2c3c(nn2C2CCCCC2)CCNCC3)cc1` [Example 177, 2-Cyclohexyl-3-phenyl-2,4,5,6,7,8-hexahydro-1,2,6-triaza-azulene], the Ki on 5-HT2A receptor was 7 nM; in experiment [1], 7 nM; in experiment [2] it was 110 nM; at rat 5-HT7a receptor, 80 nM.

`Fc1ccc(-c2c3c(nn2C2CCC2)CCNCC3)cc1` [Example 277, 2-Cyclobutyl-3-(4-fluoro-phenyl)-2,4,5,6,7,8-hexahydro-1,2,6-triaza-azulene]: the Ki came out at 0.9 nM at 5-HT2A receptor, 3 nM in experiment [1], 40 nM in experiment [2] and 150 nM on rat 5-HT7a receptor.

Turning to `CC1Cc2nn(C(C)C)c(-c3ccc(F)cc3)c2CCN1` (centres unmarked) [Example 313, 3-(4-Fluoro-phenyl)-2-isopropyl-7-methyl-2,4,5,6,7,8-hexahydro-1,2,6-triaza-azulene], the Ki on 5-HT2A receptor was determined as 100 nM; in experiment [1], 40 nM; in experiment [2], 1000 nM; on rat 5-HT7a receptor it was 30 nM.

On to `c1ccc(Cn2nc3c(c2-c2ccccc2)CCNCC3)cc1` [Example 133, 2-Benzyl-3-phenyl-2,4,5,6,7,8-hexahydro-1,2,6-triaza-azulene], for which the Ki at 5-HT2A receptor came to 2.3 nM; in experiment [1], 3.5 nM; in experiment [2] it was 10 nM; at rat 5-HT7a receptor it was 125 nM.

With `CC(C)n1nc2c(c1-c1ccc(C#N)cc1)CCNCC2` [Example 212, 4-(2-Isopropyl-2,4,5,6,7,8-hexahydro-1,2,6-triaza-azulen-3-yl)-benzonitrile], the Ki at 5-HT2A receptor is 25 nM; in experiment [1] (setting [3]), 12 nM; in experiment [2] it was 425 nM; at rat 5-HT7a receptor it was 93 nM.

As to `CN1CCc2nn(C3CCCC3)c(-c3ccc(F)cc3)c2CC1` [Example 302, 2-Cyclopentyl-3-(4-fluoro-phenyl)-6-methyl-2,4,5,6,7,8-hexahydro-1,2,6-triaza-azulene], the Ki at 5-HT2A receptor amounted to 0.2 nM; in experiment [1] it was 1.3 nM; in experiment [2], 21.5 nM; at rat 5-HT7a receptor, 100 nM.

With `Fc1cccc(Cn2nc(-c3ccc(Cl)cc3)c3c2CCNCC3)c1` [Example 76, 3-(4-Chloro-phenyl)-1-(3-fluoro-benzyl)-1,4,5,6,7,8-hexahydro-1,2,6-triaza-azulene], the Ki on 5-HT2A receptor was 210 nM; in experiment [1], 350 nM; in experiment [2], 690 nM; on rat 5-HT7a receptor, 8 nM.

With `FC(F)(F)c1ccc(-c2c3c(nn2C2CCCC2)CCNCC3)cc1` [Example 218, 2-Cyclopentyl-3-(4-trifluoromethyl-phenyl)-2,4,5,6,7,8-hexahydro-1,2,6-triaza-azulene], the Ki on 5-HT2A receptor was 1.7 nM; in experiment [1] it was 1.8 nM; in experiment [2] it was 15 nM; on rat 5-HT7a receptor it was 75 nM.

`CC(C)n1nc2c(c1-c1ccc(C(F)(F)F)cc1)CCNCC2` [Example 213, 2-Isopropyl-3-(4-trifluoromethyl-phenyl)-2,4,5,6,7,8-hexahydro-1,2,6-triaza-azulene]: the Ki at 5-HT2A receptor turned out to be 7.5 nM; in experiment [1] it was 4.7 nM; in experiment [2] (setting [4]), 80 nM; on rat 5-HT7a receptor, 12 nM.

On to `c1cc(-c2c3c(nn2C2CC2)CCNCC3)cs1` [Example 285, 2-Cyclopropyl-3-thiophen-3-yl-2,4,5,6,7,8-hexahydro-1,2,6-triaza-azulene], for which the Ki amounted to 60 nM on 5-HT2A receptor, 6 nM in experiment [1], 500 nM in experiment [2] and 29 nM on rat 5-HT7a receptor.

With `Fc1ccc(-c2c3c(nn2C2CCCC2)CCNCC3)cc1` [Example 182, 2-Cyclopentyl-3-(4-fluoro-phenyl)-2,4,5,6,7,8-hexahydro-1,2,6-triaza-azulene], the Ki is 0.74 nM at 5-HT2A receptor, 1.4 nM in experiment [1], 18 nM in experiment [2] and 90 nM on rat 5-HT7a receptor.

On to `Fc1ccc(Cn2nc(-c3ccc(Cl)cc3)c3c2CCNCC3)cc1` [Example 75, 3-(4-Chloro-phenyl)-1-(4-fluoro-benzyl)-1,4,5,6,7,8-hexahydro-1,2,6-triaza-azulene], for which the Ki at 5-HT2A receptor was found to be 200 nM; in experiment [1], 100 nM; in experiment [2], 320 nM; at rat 5-HT7a receptor, 7 nM.

Take `CC(C)n1nc2c(c1-c1ccc(Cl)cc1)CCNCC2` [Example 211, 3-(4-Chloro-phenyl)-2-isopropyl-2,4,5,6,7,8-hexahydro-1,2,6-triaza-azulene]: the Ki on 5-HT2A receptor worked out at 5 nM; in experiment [1] it was 0.5 nM; in experiment [2] (setting [4]), 18 nM; on rat 5-HT7a receptor, 8.5 nM.

Turning to `Oc1ccc(Cn2nc(-c3ccc(Cl)cc3)c3c2CCNCC3)cc1F` [Example 160, 4-[3-(4-Chloro-phenyl)-5,6,7,8-tetrahydro-4H-1,2,6-triaza-azulen-1-ylmethyl]-2-fluoro-phenol], the Ki at 5-HT2A receptor was 300 nM; in experiment [1], 350 nM; in experiment [2], 3500 nM; on rat 5-HT7a receptor it was 7 nM.

For the compound `N#Cc1ccc(-c2c3c(nn2C2CCC2)CCNCC3)cc1` [Example 280, 4-(2-Cyclobutyl-2,4,5,6,7,8-hexahydro-1,2,6-triaza-azulen-3-yl)-benzonitrile], the Ki at 5-HT2A receptor turned out to be 1.5 nM; in experiment [1], 6 nM; in experiment [2], 120 nM; at rat 5-HT7a receptor, 3300 nM.

In the case of `CC(C)Cn1nc2c(c1-c1ccc(Cl)cc1)CCNCC2` [Example 131, 3-(4-Chloro-phenyl)-2-isobutyl-2,4,5,6,7,8-hexahydro-1,2,6-triaza-azulene], the Ki was determined as 7 nM at 5-HT2A receptor, 4.2 nM in experiment [1], 50 nM in experiment [2] and 120 nM at rat 5-HT7a receptor.

Take `Fc1ccc(-c2c3c(nn2C2CCCC2)CCNCC3)cc1F` [Example 236, 2-Cyclopentyl-3-(3,4-difluoro-phenyl)-2,4,5,6,7,8-hexahydro-1,2,6-triaza-azulene]: the Ki at 5-HT2A receptor turned out to be 7 nM; in experiment [1] it was 4.5 nM; in experiment [2], 32 nM; at rat 5-HT7a receptor, 950 nM.

On to `COc1ccc(-c2c3c(nn2C2CCCC2)CCNCC3)cc1` [Example 220, 2-Cyclopentyl-3-(4-methoxy-phenyl)-2,4,5,6,7,8-hexahydro-1,2,6-triaza-azulene], for which the Ki on 5-HT2A receptor is 1.3 nM; in experiment [1], 0.55 nM; in experiment [2] it was 6.8 nM; on rat 5-HT7a receptor, 55 nM.

In the case of `Fc1ccc(-c2nn(Cc3ccccc3)c3c2CCNCC3)cc1` [Example 47, 1-Benzyl-3-(4-fluoro-phenyl)-1,4,5,6,7,8-hexahydro-1,2,6-triaza-azulene], the Ki at 5-HT2A receptor worked out at 9 nM; in experiment [1], 64 nM; in experiment [2], 24 nM; on rat 5-HT7a receptor, 7 nM.

`c1ccc(Cn2nc(-c3cccs3)c3c2CCNCC3)cc1` [Example 104, 1-Benzyl-3-thiophen-2-yl-1,4,5,6,7,8-hexahydro-1,2,6-triaza-azulene]: the Ki stood at 80 nM on 5-HT2A receptor, 52 nM in experiment [1], 360 nM in experiment [2] and 9 nM on rat 5-HT7a receptor.

With `Cc1cccc(Cn2nc(-c3ccc(Cl)cc3)c3c2CCNCC3)c1` [Example 74, 3-(4-Chloro-phenyl)-1-(3-methyl-benzyl)-1,4,5,6,7,8-hexahydro-1,2,6-triaza-azulene], the Ki was 100 nM on 5-HT2A receptor, 94 nM in experiment [1], 180 nM in experiment [2] and 5 nM on rat 5-HT7a receptor.

`CN1CCc2c(-c3ccc(Cl)cc3)nn(Cc3ccccc3)c2CC1` [Example 165, 1-Benzyl-3-(4-chloro-phenyl)-6-methyl-1,4,5,6,7,8-hexahydro-1,2,6-triaza-azulene]: the Ki at 5-HT2A receptor is 100 nM; in experiment [1] it was 310 nM; in experiment [2], 180 nM; on rat 5-HT7a receptor, 4 nM.

With `Clc1ccc(-c2c3c(nn2C2CCC2)CCNCC3)cc1` [Example 238, 3-(4-Chloro-phenyl)-2-cyclobutyl-2,4,5,6,7,8-hexahydro-1,2,6-triaza-azulene], the Ki worked out at 1 nM on 5-HT2A receptor, 0.5 nM in experiment [1], 13 nM in experiment [2] and 40 nM on rat 5-HT7a receptor.

For the compound `CCC(CC)n1nc2c(c1-c1ccc(F)cc1)CCNCC2` [Example 184, 2-(1-Ethyl-propyl)-3-(4-fluoro-phenyl)-2,4,5,6,7,8-hexahydro-1,2,6-triaza-azulene], the Ki stood at 1 nM on 5-HT2A receptor, 17 nM in experiment [1], 15 nM in experiment [2] and 120 nM on rat 5-HT7a receptor.

As to `Fc1ccc(-c2c3c(nn2C2CC2)CCNCC3)cc1` [Example 282, 2-Cyclopropyl-3-(4-fluoro-phenyl)-2,4,5,6,7,8-hexahydro-1,2,6-triaza-azulene], the Ki at 5-HT2A receptor came to 6 nM; in experiment [1] (setting [3]) it was 20 nM; in experiment [2] (setting [4]), 200 nM; at rat 5-HT7a receptor, 100 nM.
